For test [1], the target named is T1, V2 Receptor (Rattus norvegicus, UniProt Q00788).
T1 construct: rat kidney plasma membrane preparations; from tissue; host or cells: rat kidney plasma membranes
Nature of the test: V2 Receptor Binding Assay ([3H]-Arg-vasopressin, rat kidney plasma membrane). The note with it: 4° C., pH 8.0.
Procedure: Chem., 253, 3211 (1978)], the plasma membrane (100000 dpm, 4×10^-10M) of [^3 H]-Arg-vasopressin and a test compound (0.6 mg, 10^-10 -10^-5 M) are incubated at 4° C. for 3 hours in 100 mM Tris-HCl buffer pH: 8.0 (250 μl ) containing 5 mM MgCl2, 1 mM EDTA and 0.1 % BSA. After incubation, the mixture is filtered using the glass filter (GF/F) so as to separate the membrane preparation combining with vasopressin and then washed twice with the buffer (5 ml). This glass filter is taken out and mixed with liquid scintillation cocktail. The amount of [^3 H]-vasopressin combining with the membrane is measured by liquid scintillation counter and the rate of the inhibitory effect of the test compound is estimated according to the following equation. [formula]
(§1) C1 : The amount of [^3 H]-vasopressin combining with the membrane in the presence of the test compound of a known amount.
(§2) C0 : The amount of [^3 H]-vasopressin combining with the membrane in the absence of the test compound.
B1 : The amount of [3H-vasopressin combining with the membrane in the presence of the excess amount of vasopressin (10^-6 M).
(§3) The results are expressed as IC50 value, which is the concentration of the test compound required to achieve the inhibitory effect in the rate of 50%.

The target in test [2] is V1 Receptor (Rattus norvegicus, UniProt P30560). Nature of the test: V1 Receptor Binding Assay ([3H]-Arg-vasopressin, rat liver plasma membrane). The note with it: 37° C., 10 minutes, pH 8.0.
Procedure: After incubation, the mixture is filtered three times using the glass filter (GF/F) so as to separate the membrane preparation combining with vasopressin and then washed with the buffer (5 ml). This glass filter is taken out and mixed with liquid scintillation cocktail. The amount of [^3 H]-vasopressin combining with the membrane is measured by liquid scintillation counter and the rate of the inhibitory effect of the test compound is estimated according to the following equation.
as §1, §2
B1 : The amount of [^3 H]-vasopressin combining with the membrane in the presence of the excess amount of vasopressin (10^-6 M).
as §3

IC50 data for 27 compounds are collected here from patent US5244898A, “Benzoheterocyclic compounds” (Otsuka Pharmaceutical Co., Ltd., priority 1991, dated 1993).

The IC50 is the concentration at which inhibition is half-maximal. A higher IC50 goes with weaker potency in that assay.

Counter-ions that a name gives are not always drawn.

Chain of V1 Receptor (P30560 whole entry): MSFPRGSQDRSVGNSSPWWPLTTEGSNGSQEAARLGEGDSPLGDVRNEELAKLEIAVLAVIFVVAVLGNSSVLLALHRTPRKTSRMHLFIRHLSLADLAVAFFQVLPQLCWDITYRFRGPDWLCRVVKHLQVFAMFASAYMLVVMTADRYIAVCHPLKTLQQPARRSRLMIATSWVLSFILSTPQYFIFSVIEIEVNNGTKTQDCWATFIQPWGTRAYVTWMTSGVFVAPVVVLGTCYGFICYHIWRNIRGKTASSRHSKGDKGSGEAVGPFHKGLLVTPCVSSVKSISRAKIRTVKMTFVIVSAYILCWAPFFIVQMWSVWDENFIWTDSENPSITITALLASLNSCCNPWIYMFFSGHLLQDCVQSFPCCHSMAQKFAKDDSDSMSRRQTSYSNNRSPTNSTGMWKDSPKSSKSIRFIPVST
T1 sequence (Q00788 whole entry): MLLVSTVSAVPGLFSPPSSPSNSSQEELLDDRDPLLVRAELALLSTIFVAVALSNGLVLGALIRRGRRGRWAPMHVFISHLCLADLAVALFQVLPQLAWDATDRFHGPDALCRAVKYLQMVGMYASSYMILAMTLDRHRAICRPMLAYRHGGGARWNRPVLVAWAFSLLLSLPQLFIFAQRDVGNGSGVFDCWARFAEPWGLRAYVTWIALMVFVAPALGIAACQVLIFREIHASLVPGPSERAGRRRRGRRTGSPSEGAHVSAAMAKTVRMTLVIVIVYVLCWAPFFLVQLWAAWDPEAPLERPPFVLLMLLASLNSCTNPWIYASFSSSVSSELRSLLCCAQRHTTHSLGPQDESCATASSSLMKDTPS

For `COc1cc(NC(=O)c2ccccc2C)ccc1C(=O)N1CCCC(OC(=O)[C@@H](N)CCSC)c2cc(Cl)ccc21` (single isomer, unassigned) [Test Compound 13, 5-(L-Methionyloxy)-7-chloro-1-[2-methoxy-4-(2-methylbenzoylamino)benzoyl]-2,3,4,5-tetrahydro-1H-benzazepine hydrochloride], the IC50 is 6 nM in test [1] and 20 nM in test [2].

On to `CSCC[C@H](N)C(=O)OC1CCCN(C(=O)c2ccc(NC(=O)c3ccccc3C)cc2C)c2ccc(Cl)cc21` (single isomer, unassigned) [Test Compound 14, 5-(L-Methionyloxy)-7-chloro-1-[2-methyl-4-(2-methylbenzoylamino)benzoyl]-2,3,4,5-tetrahydro-1H-benzazepine hydrochloride], for which the IC50 was 11 nM in test [1] and 220 nM in test [2].

For `Cc1ccccc1C(=O)Nc1ccc(C(=O)N2CCCC(OC(=O)[C@@H](N)C(C)C)c3cc(Cl)ccc32)c(C)c1` (single isomer, unassigned) [Test Compound 15, 5-(L-Valyloxy)-7-chloro-1-[2-methyl-4-(2-methylbenzoylamino)benzoyl]-2,3,4,5-tetrahydro-1H-benzazepine hydrochloride], the IC50 in test [1] was determined as 14 nM; in test [2] it was 180 nM.

`CN(C)C1CCCN(C(=O)c2ccc(NC(=O)Cc3c(Cl)cccc3Cl)cc2)c2ccccc21` (stereo not drawn) [Test Compound 6, 5-Dimethylamino-1-{4-[2-(2,6-dichlorophenyl)acetylamino]benzoyl}-2,3,4,5-tetrahydro-1H-benzazepine]: the figures for the half-inhibitory concentration (IC50) in test [1] and in test [2] were 24 nM and 120 nM, respectively.

Regarding `Cc1ccccc1CC(=O)Nc1ccc(C(=O)N2CCCC(O)c3cc(Cl)ccc32)c(C)c1` (stereo not drawn) [Test Compound 16, 5-Hydroxy-7-chloro-1-{2-methyl-4-[2-(2-methylphenyl)acetylamino]benzoyl}-2,3,4,5-tetrahydro-1H-benzazepine], the IC50 in test [1] amounted to 4 nM; in test [2], 320 nM.

On to `COc1cc(NC(=O)c2ccccc2C)ccc1C(=O)N1CCCC(OC(=O)CN2CCOCC2)c2cc(Cl)ccc21` (stereo not drawn) [Test Compound 17, 5-(2-Morpholinoacetyloxy)-7-chloro-1-[2-methoxy-4-(2-methylbenzoylamino)benzoyl]-2,3,4,5-tetrahydro-1H-benzazepine hydrochloride], for which the figures for the IC50 in test [1] and in test [2] were 12 nM and 21 nM, respectively.

`COc1cc(NC(=O)Cc2ccccc2C)ccc1C(=O)N1CCCC(O)c2cc(Cl)ccc21` (stereo not drawn) [Test Compound 18, 5-Hydroxy-7-chloro-1-{2-methoxy-4-[2-(2-methylphenyl)acetylamino]benzoyl}-2,3,4,5-tetrahydro-1H-benzazepine]: the figures for the IC50 in test [1] and in test [2] were 4 nM and 55 nM, respectively.

`Cc1ccccc1C(=O)Nc1ccc(C(=O)N2CCCC(OCC(=O)NCC(=O)O)c3cc(F)ccc32)c(Cl)c1` (stereo not drawn) [Test Compound 22, 5-Carboxymethylaminocarbonylmethoxy-7-fluoro-1-[2-chloro-4-(2-methylbenzoylamino)benzoyl]-2,3,4,5-tetrahydro-1H-benzazepine]: the IC50 in test [1] was found to be 18 nM. This counts as double-digit nanomolar.

As for `COC(=O)[C@@H]1CCCN1C(=O)COC1CCCN(C(=O)c2ccc(NC(=O)c3ccccc3C)cc2Cl)c2ccc(F)cc21` (stereo partly drawn) [Test Compound 23, 5-[(2-β-Methoxycarbonyl)-1-pyrrolidinylcarbonylmethoxy]-7-fluoro-1-[2-chloro-4-(2-methylbenzoylamino)benzoyl]-2,3,4,5-tetrahydro-1H-benzazepine], in test [1], the IC50 amounted to 11 nM. This IC50 lies about 1.6-fold lower than the previous one.

In the case of `COCC(=O)OC1CCCN(C(=O)c2ccc(NC(=O)c3ccccc3C)cc2)c2ccc(Cl)cc21` (stereo not drawn) [Test Compound 24, 5-(2-Methoxyacetyloxy)-7-chloro-1-[4-(2-methylbenzoylamino)benzoyl]-2,3,4,5-tetrahydro-1H-benzazepine], the concentration for half-maximal inhibition (IC50) came out at 7 nM in test [1] and 18 nM in test [2].

Turning to `Cc1ccccc1C(=O)Nc1ccc(C(=O)N2CCCC(COC(=O)CN(C)C)c3cc(Cl)ccc32)cc1` (stereo not drawn) [Test Compound 25, 5-[2-(Dimethylaminoacetyloxy)methyl]-7-chloro-1-[4-(2-methylbenzoylamino)benzoyl]-2,3,4,5-tetrahydro-1H-benzazepine hydrochloride], the IC50 is 4 nM in test [1] and 21 nM in test [2].

Consider `CCOC(=O)CC1CCCN(C(=O)c2ccc(NC(=O)c3ccccc3C)cc2OC)c2ccc(Cl)cc21` (stereo not drawn) [Test Compound 26, 5-Ethoxycarbonylmethyl-7-chloro-1-[2-methoxy-4-(2-methylbenzoylamino)benzoyl]-2,3,4,5-tetrahydro-1H-benzazepine], for which the IC50 stood at 9 nM in test [1] and 77 nM in test [2].

In the case of `COc1cc(C(=O)N2CCCC(CC(=O)N3CCN(C)CC3)c3cc(Cl)ccc32)ccc1NC(=O)c1ccccc1C` (stereo not drawn) [Test Compound 27, 5-[(4-Methyl-1-piperazinyl)carbonylmethyl]-7-chloro-1-[3-methoxy-4-(2-methylbenzoylamino)benzoyl]-2,3,4,5-tetrahydro-1H-benzazepine], the IC50 in test [1] came out at 7 nM; in test [2] it was 34 nM.

As to `CCOc1cc(NC(=O)c2ccccc2Cl)ccc1C(=O)N1CCCC(CC(N)=O)c2cc(Cl)ccc21` (stereo not drawn) [Test Compound 28, 5-Carbamoylmethyl-7-chloro-1-[2-ethoxy-4-(2-chlorobenzoylamino)benzoyl]-2,3,4,5-tetrahydro-1H-benzazepine], the IC50 in test [1] stood at 2 nM; in test [2], 30 nM.

Turning to `COc1cc(NC(=O)c2ccccc2C)ccc1C(=O)N1CCCC(OC(=O)[C@@H](N)CCCCN)c2cc(Cl)ccc21` (stereo partly drawn) [Test Compound 29, 5-(L-Lysyloxy)-7-chloro-1-[2-methoxy-4-(2-methylbenzoylamino)benzoyl]-2,3,4,5-tetrahydro-1H-benzazepine dihydrochloride], the IC50 in test [1] was 6 nM; in test [2], 40 nM.

In the case of `COc1cc(C(=O)N2CCCC(CC(=O)NC3CCNCC3)c3cc(Cl)ccc32)ccc1NC(=O)c1ccccc1C` (stereo not drawn) [Test Compound 30, 5-[(4-Piperidinyl)aminocarbonylmethyl]-7-chloro-1-[3-methoxy-4-(2-methylbenzoylamino)benzoyl]-2,3,4,5-tetrahydro-1H-benzazepine hydrochloride], the IC50 in test [1] came out at 9 nM; in test [2], 31 nM.

`COc1cc(NC(=O)c2ccccc2Cl)ccc1C(=O)N1CCCC(CC(=O)O)c2cc(Cl)ccc21` (stereo not drawn) [Test Compound 31, 5-Carboxymethyl-7-chloro-1-[2-methoxy-4-(2-chlorobenzoylamino)benzoyl]-2,3,4,5-tetrahydro-1H-benzazepine] returned an IC50 in test [1] of 19 nM.

`COc1cc(C(=O)N2CCCC(CC(=O)N(C)C)c3cc(Cl)ccc32)ccc1NC(=O)c1ccccc1C` (stereo not drawn) [Test Compound 32, 5-Dimethylaminocarbonylmethyl-7-chloro-1-[3-methoxy-4-(2-methylbenzoylamino)benzoyl]-2,3,4,5-tetrahydro-1H-benzazepine]: the IC50 in test [1] was 4 nM; in test [2], 11 nM.

The compound `Cc1ccccc1C(=O)Nc1ccc(C(=O)N2CCCC(OCCCN3CCOCC3)c3cc(F)ccc32)c(C)c1` (stereo not drawn) [Test Compound 35, 5-(3-Morpholinopropoxy)-7-fluoro-1-[2-methyl-4-(2-methylbenzoylamino)benzoyl]-2,3,4,5-tetrahydro-1H-benzazepine] came in with an IC50 in test [1] of 6.2 nM.

In the case of `Cc1ccccc1C(=O)Nc1ccc(C(=O)N2CCCC(OCCCn3ccnc3)c3cc(F)ccc32)c(C)c1` (stereo not drawn) [Test Compound 36, 5-[3-(1-Imidazolyl)propoxy]-7-fluoro-1-[2-methyl-4-(2-methylbenzoylamino)benzoyl]-2,3,4,5-tetrahydro-1H-benzazepine], the IC50 in test [1] stood at 7.6 nM.

In test [1], `Cc1ccccc1C(=O)Nc1ccc(C(=O)N2CCCC(CC(=O)N3CCN(C)CC3)c3cc(Cl)ccc32)c(C)c1` (stereo not drawn) [Test Compound 41, 5-[(4-Methyl-1-piperazinyl)carbonylmethyl]-7-chloro-1-[2-methyl-4-(2-methylbenzoylamino]benzoyl]-2,3,4,5-tetrahydro-1H-benzazepine] registered an IC50 of 13 nM.

For `COc1cc(NC(=O)c2ccccc2OCCCCN2CCN(C(C)=O)CC2)ccc1C(=O)N1CCCCc2cc(Cl)ccc21` [Test Compound 49], in test [1], the IC50 amounted to 52 nM.

In the case of `CC(=O)N1CCN(CCC2CCCN(C(=O)c3ccc(NC(=O)c4ccccc4C)cc3C)c3ccc(Cl)cc32)CC1` (stereo not drawn) [Test Compound 53, 5-[2-(1-Acetyl-1-piperazinyl)ethyl]-7-chloro-1-[2-methyl-4-(2-methylbenzoylamino)benzoyl]-2,3,4,5-tetrahydro-1H-benzazepine hydrochloride], the IC50 in test [1] was found to be 29 nM.

For the compound `COc1cc(C(=O)N2CCCCc3cc(Cl)ccc32)ccc1NC(=O)c1ccccc1OCCCCN1CCN(C(C)=O)CC1` [Test Compound 56, 7-Chloro-1-[3-methoxy-4-{2-[4-(4-acetyl-1-piperazinyl)butoxy]benzoylamino}benzoyl]-2,3,4,5-tetrahydro-1H-benzazepine], the IC50 in test [2] stood at 7 nM.

`Cc1ccccc1C(=O)Nc1ccc(C(=O)N2CCCC(OCC(=O)NC3CCNCC3)c3cc(Cl)ccc32)c(C)c1` (stereo not drawn) [Test Compound 57, 7-Chloro-5-[(4-piperidinyl)aminocarbonylmethoxy]-1-[2-methyl-4-(2-methylbenzoylamino)benzoyl]-2,3,4,5-tetrahydro-1H-benzazepine hydrochloride] had an IC50 in test [1] of 9 nM.

For the compound `Cc1ccccc1C(=O)Nc1ccc(C(=O)N2CCCC(OCC(=O)NC3CCN(C)CC3)c3cc(Cl)ccc32)c(C)c1` (stereo not drawn) [Test Compound 59, 5-[(1-Methyl-4-piperidinyl)aminocarbonyl-methoxy]-7-chloro-1-[2-methyl-4-(2-methylbenzoylamino)-benzoyl]-2,3,4,5-tetrahydro-1H-benzazepine], in test [1], the IC50 worked out at 9 nM.

In test [1], `Cc1ccccc1C(=O)Nc1ccc(C(=O)N2CCCC(CC(=O)NCC(N)=O)c3cc(Cl)ccc32)c(C)c1` (stereo not drawn) [Test Compound 62, 5-(Carbamoylmethylaminocarbonylmethyl)-7-chloro-1-[2-methyl-4-(2-methylbenzoylamino)benzoyl]-2,3,4,5-tetrahydro-1H-benzazepine] returned an IC50 of 3 nM. This IC50 lies about 3-fold lower than the previous one.
